Measured values reported in patent publication US9963474B2, “Mitochondria-targeted dicarbonyl sequestering compounds” (MEDICAL RESEARCH COUNCIL, priority 2013, dated 2018).

What was measured:
[1] = Reaction rate with glyoxal (fluorometric kinetics); details: 37° C., means±SE, n=3
Procedure: (A) The reactions between MitoG (100 μM) and 1,2-dicarbonyls (25 μM) at 37° C. were followed from the formation of the quinoxaline products at 345 nm. (B) Fluorimetric detection of the reaction between MitoG and methylglyoxal (40 μM each), and between MitoG and glyoxal (200 μM each) was observed by monitoring the quinoxaline products at excitation and emission wavelengths of 344 and 433 nm, respectively. The changes in fluorescence caused by MQE and QE formation was quantified from calibration curves constructed by plotting fluorescence (excitation and emission wavelengths of 344 and 433 nm, respectively) against known amounts of either quinoxaline and were linear up to at least 20 μM.
TPP-conjugated compounds were made up as 10 mM stock solutions in DMSO, flushed with argon and stored as aliquots at −20° C. […] The molar extinction coefficients were calculated from the absorbance at maximal absorption (λmax) for the compounds for solutions of known concentration. Reaction rates between MitoG and 1,2-dicarbonyls were determined from the initial linear slope over the first 30 s at the λmax for the formation of the relevant quinoxaline. Fluorescence spectra were obtained in 2.5 ml KCl buffer using a Shimadzu RF-301PC fluorimeter with slit widths of 3 nm. […]

[2] = test system: RLM respiring on glutamate/malate; assay: Protection against dicarbonyl-induced respiratory depression in isolated RLM; parameters: species or system rat; details: 37° C.
Procedure: (§1) Isolated RLM respiring on glutamate/malate were incubated with MitoG, methoxyphenylenediamine (MP) or butylTPP for 2 min, followed by 0.5 mM methylglyoxal or 5 mM glyoxal for 5 min. ADP was then added and the rate of oxygen consumption monitored at 37° C. (see FIGS. 12A & 12B). C2C12 cells were pre-treated with MitoG, methoxyphenylenediamine (MP) or butylTPP for 1 h before exposure to 1 mM methylglyoxal or 5 mM glyoxal (see FIGS. 12C & 12D). Following an overnight incubation, cell survival was determined using the MTS assay. Similar experiments were conducted in BAECs pre-treated with MitoG, MP or butylTPP. For all experiments, concentrations of methylglyoxal and glyoxal used were chosen based on results from studies conducted prior to the protection assays. In these prior studies, RLM or cells were exposed to a range of dicarbonyl concentrations, and the phosphorylating rates of respiration or cell survival were evaluated. The results of these earlier experiments are shown in insets, and dicarbonyl concentrations that had caused significant respiratory depression or cell death were chosen for use in the protection assays. Data for all groups were normalized against untreated controls. For RLM, the rate of respiration by untreated controls was taken to be 100%; for cells, cell survival of untreated controls was taken to be 100%. Results are expressed as mean±S.E. of three independent experiments. MitoG was protective against methylglyoxal-induced respiratory depression and both methylglyoxal- and glyoxal-induced cell death in C2C12 cells and BAECs. […] In FIG. 12 the symbols *, ** respectively indicate that P<0.05 or P<0.01 relative to dicarbonyl-only groups; and the symbols +, ++ respectively indicate that P<0.05 or P<0.01 relative to untreated controls.

C2C12 cells = assay: Protection against dicarbonyl-induced cell death, C2C12, MTS assay; type: cell-based, mouse; details: pre-treated 1 h, overnight
Procedure: as §1

BAECs = assay: Protection against dicarbonyl-induced cell death, BAECs, MTS assay; type: cell-based, bovine; details: pre-treated 1 h, overnight
Procedure: as §1

In the case of `Nc1ccc(OCCCCCC[P+](c2ccccc2)(c2ccccc2)c2ccccc2)cc1N` [MitoG, (6-(3,4-Diaminophenoxy)hexyl)triphenylphosphonium chloride], the “rate constant for reaction with glyoxal” value [1] is reported as 0.6 ± 0.3 M⁻¹ s⁻¹, the “protection against methylglyoxal-induced respiratory depression” value ([2]; 0.5 mM methylglyoxal) is reported as “protected against methylglyoxal-induced respiratory depression in isolated RLM in a dose-dependent manner” and the “protection against glyoxal-induced respiratory depression” value ([2]; 5 mM glyoxal) is reported as “did not prevent glyoxal damage”. For the same compound, the “protection against methylglyoxal-induced cell death” value (C2C12 cells; C2C12, 1 mM methylglyoxal) was “protective”, the “protection against glyoxal-induced cell death” value (C2C12 cells; C2C12, 5 mM glyoxal) was “protective” and the “protection against glyoxal-induced cell death” value (BAECs) was “protective”. The “protection against methylglyoxal-induced cell death” value (BAECs) was “protective”.
